Where two headings read alike, the source gives them in different places.
What was measured:
[1] = test system: HLA class-I alleles A*0101, A*0201, A*0301, A*2402, B*0702, B*0801, B*1402, B*1501, B*2705, B*3501, B*3901, B*4001, B*4402, B*5201, B*5701, B*5801, B*8101 …; type: cell-based, human; conditions: relative anti-HLA MFI; for Relative HLA MFI (10 uM): peptide 10 uM; for Relative HLA MFI (100 uM): peptide 100 uM
HLA-B*0702 = HLA-B*0702 (Homo sapiens, UniProt P01889); experiment: Cell-based HLA class I-peptide concentration-based stability assay (TAP-deficient mono-allelic 721.221 cells); conditions: HLA B*07 mono-allelic TAP-deficient 721.221 cells, relative anti-HLA MFI; for Relative HLA MFI (10 uM): peptide 10 uM; for Relative HLA MFI (100 uM): peptide 100 uM
Method: (§1) Controls without peptide, but the corresponding concentration of DMSO, were performed in parallel.

HLA-A*0301 = HLA-A*0301 (Homo sapiens, UniProt P04439); experiment: as above; conditions: HLA A*03 mono-allelic TAP-deficient 721.221 cells, relative anti-HLA MFI
Method: as §1

HLA-B*5701 = HLA-B*5701 (Homo sapiens, UniProt P01889, D201E/D98Y/E176V/E187L/E204Q/E69M/E70A/G107R/I90N/K202T/L105A/L119I/N104I/N87E/Q89R/Q94S/R106L/R155S/R180L/R86G/S101N/S121V/S35A/S48A/T118I/V36M/Y140S/Y91M); experiment: as above; conditions: section B*57, TAP-deficient mono-allelic 721.221 cells, relative anti-HLA MFI; for Relative HLA MFI (10 uM): peptide 10 uM; for Relative HLA MFI (100 uM): peptide 100 uM
Method: as §1

[2] = HLA A*02 mono-allelic TAP-deficient 721.221 cells
[3] = HLA B*27 mono-allelic TAP-deficient 721.221 cells
[4] = HLA B*15 mono-allelic TAP-deficient 721.221 cells
[5] = HLA B*52 mono-allelic TAP-deficient 721.221 cells
[6] = HLA A*01 mono-allelic TAP-deficient 721.221 cells
[7] = HLA A*24 mono-allelic TAP-deficient 721.221 cells
[8] = HLA B*35 mono-allelic TAP-deficient 721.221 cells
[9] = HLA B*40 mono-allelic TAP-deficient 721.221 cells
[10] = section B*58, TAP-deficient mono-allelic 721.221 cells
[11] = HLA B*14 mono-allelic TAP-deficient 721.221 cells
[12] = HLA B*08 mono-allelic TAP-deficient 721.221 cells

Question: For RGPGRAFVTI [RI10], which “Relative HLA MFI (10 uM)” value [1, 2] is on record?
Answer: Its value is 0.001172.

Question: What about the “Relative HLA MFI (100 uM)” value [1, 2] of the same sequence?
Answer: The value was 0.4741.

Question: What about the “Relative HLA MFI (10 uM)” value [1, 3] of the same sequence?
Answer: The value was 0.4976.

Question: What about the “Relative HLA MFI (100 uM)” value [1, 3] of the same sequence?
Answer: The value was 0.7237.

Question: What about the “Relative HLA MFI (10 uM)” value (HLA-B*0702) of the same sequence?
Answer: Its value is 0.02584.

Question: And the “Relative HLA MFI (100 uM)” value (HLA-B*0702)?
Answer: Its value is 0.4954.

Question: RILQQLLFI [RI9] was tested. Which “Relative HLA MFI (10 uM)” value [1, 2] did it give?
Answer: Its value is 0.2027.

Question: And the “Relative HLA MFI (100 uM)” value [1, 2]?
Answer: Its value is 0.4852.

Question: RIRQGLERA [RA9] was tested. Which “Relative HLA MFI (10 uM)” value [1, 2] did it give?
Answer: The value was 0.08278.

Question: What about the “Relative HLA MFI (100 uM)” value [1, 2] of the same sequence?
Answer: The value was 0.3743.

Question: What about the “Relative HLA MFI (10 uM)” value [1, 4] of the same sequence?
Answer: Its value is 0.6385.

Question: And the “Relative HLA MFI (100 uM)” value [1, 4]?
Answer: Its value is 0.7015.

Question: Which results are given for RIRTWKSLVK [RK10]?
Answer: Relative HLA MFI (10 uM) (HLA-A*0301; peptide 10 uM): 0.3155; Relative HLA MFI (100 uM) (HLA-A*0301; peptide 100 uM): 0.8607

Question: RMYSPTSI [RI8] was tested. Which “Relative HLA MFI (10 uM)” value [1, 5] did it give?
Answer: The value was 0.6683.

Question: And the “Relative HLA MFI (100 uM)” value [1, 5]?
Answer: The value was 1.

Question: What does the source list for RPAEPVPLQL [RL10]?
Answer: Relative HLA MFI (10 uM) (HLA-B*0702): 0.196; Relative HLA MFI (100 uM) (HLA-B*0702): 0.848

Question: RRGWEVLKY [RY9] was tested. Which “Relative HLA MFI (10 uM)” value [1, 6] did it give?
Answer: Its value is 0.

Question: And the “Relative HLA MFI (100 uM)” value [1, 6]?
Answer: The value was 0.009443.

Question: What about the “Relative HLA MFI (10 uM)” value [1, 4] of the same sequence?
Answer: Its value is 0.3667.

Question: What about the “Relative HLA MFI (100 uM)” value [1, 4] of the same sequence?
Answer: The value was 0.5754.

Question: How did the “Relative HLA MFI (10 uM)” value [1, 7] turn out when RYPLTFGW [RW8] was run?
Answer: The value was 0.9172.

Question: And the “Relative HLA MFI (100 uM)” value [1, 7]?
Answer: Its value is 0.9742.

Question: For SLLNATAIAV [SAV10], which “Relative HLA MFI (10 uM)” value [1, 2] is on record?
Answer: The value was 0.3513.

Question: What about the “Relative HLA MFI (100 uM)” value [1, 2] of the same sequence?
Answer: Its value is 0.6044.

Question: With SPAIFQSSM [SM9] as the sequence, how does the “Relative HLA MFI (10 uM)” value (HLA-B*0702) read?
Answer: Its value is 0.

Question: What about the “Relative HLA MFI (100 uM)” value (HLA-B*0702) of the same sequence?
Answer: Its value is 0.1337.

Question: Which “Relative HLA MFI (10 uM)” value (HLA-B*0702) does the source give for SPRTLNAWV [SV9] here?
Answer: The value was 0.

Question: What about the “Relative HLA MFI (100 uM)” value (HLA-B*0702) of the same sequence?
Answer: The value was 0.114.

Question: How did the “Relative HLA MFI (10 uM)” value (HLA-B*5701) turn out when STTVKAACWW [SW10] was run?
Answer: Its value is 0.3518.

Question: What about the “Relative HLA MFI (100 uM)” value (HLA-B*5701) of the same sequence?
Answer: The value was 0.4995.

Question: Which results are given for TAVPWNASW [TW9]?
Answer: Relative HLA MFI (10 uM) [1, 8]: 0.4789; Relative HLA MFI (100 uM) [1, 8]: 0.6125

Question: Which results are given for TERQANFL [TL8]?
Answer: Relative HLA MFI (10 uM) [1, 9]: 0.2672; Relative HLA MFI (100 uM) [1, 9]: 0.5683

Question: TPGPGVRYPL [TL10] was tested. Which “Relative HLA MFI (10 uM)” value (HLA-B*0702) did it give?
Answer: The value was 0.

Question: And the “Relative HLA MFI (100 uM)” value (HLA-B*0702)?
Answer: Its value is 0.1231.

Question: Which “Relative HLA MFI (10 uM)” value [1, 4] does the source give for TQGYFPDWQNY [TY11] here?
Answer: The value was 0.7367.

Question: And the “Relative HLA MFI (100 uM)” value [1, 4]?
Answer: Its value is 1.

Question: TSTVEEQIQW [TQW10] was tested. Which “Relative HLA MFI (10 uM)” value [1, 10] did it give?
Answer: The value was 0.4572.

Question: What about the “Relative HLA MFI (100 uM)” value [1, 10] of the same sequence?
Answer: Its value is 0.9093.

Question: How did the “Relative HLA MFI (10 uM)” value [1, 8] turn out when TVLDVGDAY [TY9] was run?
Answer: Its value is 0.5668.

Question: What about the “Relative HLA MFI (100 uM)” value [1, 8] of the same sequence?
Answer: Its value is 0.7722.

Question: What does the source list for VIYQYMDDL [VL9]?
Answer: Relative HLA MFI (10 uM) [1, 2]: 0.03377; Relative HLA MFI (100 uM) [1, 2]: 0.4231; Relative HLA MFI (10 uM) [1, 7]: 0.347; Relative HLA MFI (100 uM) [1, 7]: 0.8132; Relative HLA MFI (10 uM) [1, 3]: 0.653; Relative HLA MFI (100 uM) [1, 3]: 0.7425

Question: How did the “Relative HLA MFI (10 uM)” value [1, 4] turn out when VKVIEEKAF [VF9] was run?
Answer: Its value is 0.2223.

Question: And the “Relative HLA MFI (100 uM)” value [1, 4]?
Answer: Its value is 0.4298.

Question: With VLAEAMSQV [VV9] as the sequence, how does the “Relative HLA MFI (10 uM)” value [1, 2] read?
Answer: The value was 0.4244.

Question: What about the “Relative HLA MFI (100 uM)” value [1, 2] of the same sequence?
Answer: The value was 0.794.

Question: VLEWRFDSRL [VL10] was tested. Which “Relative HLA MFI (10 uM)” value [1, 2] did it give?
Answer: Its value is 0.04901.

Question: And the “Relative HLA MFI (100 uM)” value [1, 2]?
Answer: Its value is 0.4134.

Question: With VPLDEDFRKY [VY10] as the sequence, how does the “Relative HLA MFI (10 uM)” value [1, 8] read?
Answer: The value was 0.6747.

Question: What about the “Relative HLA MFI (100 uM)” value [1, 8] of the same sequence?
Answer: Its value is 0.7772.

Question: How did the “Relative HLA MFI (10 uM)” value [1, 8] turn out when VPVWKEATTTL [VL11] was run?
Answer: Its value is 0.5193.

Question: And the “Relative HLA MFI (100 uM)” value [1, 8]?
Answer: The value was 0.6924.

Question: How did the “Relative HLA MFI (10 uM)” value [1, 11] turn out when VRMYSPTSI [VI9] was run?
Answer: The value was 0.1203.

Question: What about the “Relative HLA MFI (100 uM)” value [1, 11] of the same sequence?
Answer: Its value is 0.

Question: VTDSQYALGI [VI10] was tested. Which “Relative HLA MFI (10 uM)” value [1, 4] did it give?
Answer: Its value is 0.2539.

Question: And the “Relative HLA MFI (100 uM)” value [1, 4]?
Answer: Its value is 0.3145.

Question: Which results are given for WPTVRERM [WM8]?
Answer: Relative HLA MFI (10 uM) [1, 12]: 0.08175; Relative HLA MFI (100 uM) [1, 12]: 0.02576

Question: How did the “Relative HLA MFI (10 uM)” value [1, 8] turn out when WRFDSRLAF [WF9] was run?
Answer: Its value is 0.3891.

Question: What about the “Relative HLA MFI (100 uM)” value [1, 8] of the same sequence?
Answer: Its value is 0.3599.

Question: With WRFDSRLAFH [WH10] as the sequence, how does the “Relative HLA MFI (10 uM)” value [1, 6] read?
Answer: Its value is 0.02411.

Question: What about the “Relative HLA MFI (100 uM)” value [1, 6] of the same sequence?
Answer: Its value is 0.1796.

Question: What does the source list for YTPGPGIRY [YY9]?
Answer: Relative HLA MFI (10 uM) (HLA-B*5701): 0; Relative HLA MFI (100 uM) (HLA-B*5701): 0

From article PMC8293625, “HLA class-I-peptide stability mediates CD8^+ T cell immunodominance hierarchies and facilitates HLA-associated immune control of HIV” (Cell Reports, 2021)
